Laboratory results as given in patent publication US20260242759A1, “GQ/11 Protein Peptidomimetics” (Vrije Universiteit Brussel, priority 2022, published 2026).
Non-standard residues stand in square brackets, D forms with d. Residues, ends and D or L forms follow the SMILES beside them. Cha = N[C@@H](CC1CCCCC1)C(=O)O

Target: T1, human muscarinic 1 receptor (M1R) (Homo sapiens, UniProt P11229)
T1 construct: The M1R constructs used in this assay consisted of the full-length human muscarinic 1 receptor; FLAG (N); expressed in transfected cells; membrane extracts
T1 sequence (P11229 1-460): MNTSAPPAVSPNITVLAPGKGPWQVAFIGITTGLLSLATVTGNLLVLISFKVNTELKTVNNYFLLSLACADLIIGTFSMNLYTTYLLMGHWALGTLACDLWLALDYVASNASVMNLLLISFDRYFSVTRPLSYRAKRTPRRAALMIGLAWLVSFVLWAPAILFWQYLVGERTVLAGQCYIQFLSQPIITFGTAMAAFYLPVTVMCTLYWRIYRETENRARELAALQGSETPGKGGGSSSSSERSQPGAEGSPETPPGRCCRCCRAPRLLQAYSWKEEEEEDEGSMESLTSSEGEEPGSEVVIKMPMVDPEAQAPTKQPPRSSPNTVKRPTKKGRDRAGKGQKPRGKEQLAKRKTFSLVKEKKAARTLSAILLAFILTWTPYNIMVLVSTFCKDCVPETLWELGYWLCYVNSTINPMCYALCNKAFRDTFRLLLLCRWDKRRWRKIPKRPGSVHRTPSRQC
Test: Radioligand binding assay (RLA) on M1R membrane extracts
Conditions: IC50 of agonist without mimetic divided by IC50 with mimetic; averaged value
Excerpt: A radioligand displacement assay can quantify the pharmacological stabilization of the GPCR in the active conformation by comparing the affinities of an agonist for the basal versus the active GPCR conformer. In particular, stabilization of a GPCR in an active conformational state or specific binding to a GPCR in an active conformational state by a G protein peptidomimetic or a Gq/11 protein peptidomimetic as disclosed herein can be determined based on the shift in IC50 value of a ligand, in particular an agonist more particularly an orthosteric agonist, which binds to the GPCR when tested in the presence and the absence of the G protein peptidomimetic or the Gq/11 protein peptidomimetic. During the assay, the binding affinity of an orthosteric agonist for the receptor in presence and absence of the (allosteric) peptidomimetic is determined. Therefore, the GPCR, e.g. embedded in membrane extracts, is incubated with a radioligand and different concentrations of the agonist. By increasing the agonist concentration, radioligand will be displaced by the agonist. A leftward shift of the curve in the presence of the peptidomimetic is indicative of a peptidomimetic capable of stabilizing a GPCR in an active conformational state. A “shift” in IC50 value or IC50 shift is defined herein as the IC50 ratio of a ligand, in particular an agonist, more particularly an orthosteric agonist, which binds to the GPCR in the absence of a G protein peptidomimetic or a Gq/11 protein peptidomimetic relative to the presence of the G protein peptidomimetic or the Gq/11 protein peptidomimetic, or the IC50 value of a ligand, in particular an agonist, for binding to the GPCR in the absence of a G protein peptidomimetic or a Gq/11 protein peptidomimetic divided by the IC50 value of the ligand in the presence of the G protein peptidomimetic or the Gq/11 protein peptidomimetic in the same preparation, wherein said IC50 values are determined in a radioligand binding assay or radioligand displacement assay (RLA) as known to the skilled person. For example, a human muscarinic acetylcholine 1 receptor (M1R) radioligand binding assay using ^3H—N-methyl scopolamine (^3H-NMS) as the radioligand and increasing concentrations of acetylcholine chloride (agonist) as cold competitor may be used.
The membrane extracts were prepared from cells that overexpressed muscarinic acetylcholine 1 receptor (M1R), by resuspending the cell pellet in a buffer (1 ml buffer/2×1E7 cells) containing 20 mM Hepes (pH 7.4), 100 mM NaCl, Leupeptin and phenylmethylsulfonyl fluoride (PMSF). Afterwards the cells were vortexed and homogenized in ice using a small volume ULTRA-TURRAX® (6×10 sec). The cells were then centrifuged for 15 min at 16000 rcf, in a pre-cooled centrifuge (4° C.) and resuspended in the previous buffer containing 10% sucrose. Finally, the membranes were again homogenized in ice with the small volume ULTRA-TURRAX® (3×10 sec). The protein concentration in the membrane extracts was determined using a Pierce™ bicinchoninic acidv (BCA) Protein Assay Kit and the protein concentration was extrapolated from the Bovine Serum Albumine standard curve.
The M1R constructs used in this assay consisted of the full-length human muscarinic 1 receptor with a FLAG tag at the N-terminus. A buffer containing 20 mM Hepes pH 7.4, 100 mM NaCl, and 0.1% BSA was used for the ligands, membrane extracts and peptides (+1% dimethylsulfoxide (DMSO)). The competition assay was performed with [3H]—N-methyl scopolamine ([3H]-NMS) as radiolabeled antagonist, at a final concentration of 0.6 nM. A ten-fold dilution series of the agonist, acetylcholine chloride, was prepared to obtain a dose response curve. After incubation, the samples were harvested into filter plates (GF/C) and washed with ice cold washing buffer (20 mM Hepes pH 7.4) using the 96-well harvester. […]

CC[C@H](C)[C@H](NC(=O)[C@@H](NC(=O)[C@H](CC(=O)O)NC(=O)[C@H](CCCCN)NC(=O)[C@@H](NC(=O)[C@H](C)NC(=O)[C@H](C)NC(=O)[C@H](Cc1ccccc1)NC(=O)[C@H](CCCCN)NC(=O)[C@H](CCCCN)NC(=O)[C@H](CCCCN)NC(C)=O)C(C)C)[C@@H](C)O)C(=O)N[C@@H](CC(C)C)C(=O)N[C@@H](CCC(N)=O)C(=O)N[C@@H](CC(C)C)C(=O)N[C@@H](CC(N)=O)C(=O)N[C@@H](CC(C)C)C(=O)N[C@@H](CCCCN)C(=O)N[C@@H](CCC(=O)O)C(=O)N[C@@H](Cc1ccc(O)cc1)C(=O)N[C@@H](CC(N)=O)C(=O)N[C@@H](CC1CCCCC1)C(=O)N[C@H](C(=O)O)C(C)C [SBL-GQ-04] (Ac-KKKFAAVKDTILQLNLKEYN[Cha]V-OH)
Shift: 4
